Assay results from ChEMBL document CHEMBL4350985, “1,3-Dioxane as a scaffold for potent and selective 5-HT1AR agonist with in-vivo anxiolytic, anti-depressant and anti-nociceptive activity” (Eur J Med Chem, 2019).
The source made the active and inactive calls. No cut-off for these calls is given here.

Key:
SH-SY5Y [1] = assay: Neuroprotective activity against H2O2-induced cell death in human SH-SY5Y cells at 1 uM incubated for 24 hrs by MTT assay; type: functional
SH-SY5Y [2] = assay: Neuroprotective activity against oligomycin A-induced cell death in human SH-SY5Y cells at 0.1 uM incubated for 24 hrs by MTT assay; type: functional
[3] = Apparent permeability from apical to basolateral side in dog MDCK2-MDR1 cells incubated for 120 mins by UV-visible spectrophotometry; type: ADME, cell-based, Canis lupus familiaris; settings: MDCK-MDR1
[4] = Half life in Sprague-Dawley rat plasma at 10 mg/kg, po measured upto 480 mins by LC/MS-MS analysis; type: ADME, organism-based
[5] = Cmax in Sprague-Dawley rat brain at 10 mg/kg, po measured upto 480 mins by LC/MS-MS analysis; type: ADME, organism-based; parameters: dose 10 mg/kg, route oral; settings: in vivo, 8 h
[6] = AUC (0 to t) in Sprague-Dawley rat brain at 10 mg/kg, po measured upto 480 mins by LC/MS-MS analysis; type: ADME, organism-based; settings: in vivo, 8 h
[7] = Half life in Sprague-Dawley rat brain at 10 mg/kg, po measured after 15 to 45 mins by LC/MS-MS analysis; type: ADME, organism-based
[8] = Half life in Sprague-Dawley rat brain at 10 mg/kg, po measured after 45 to 480 mins by LC/MS-MS analysis; type: ADME, organism-based
Rattus norvegicus [9] = assay: Anxiolytic activity at Sprague-Dawley rat assessed as increase in time spent in open arm at 20 mg/kg, po by EPM test relative to control; type: functional
Mus musculus = assay: Antinociceptive activity in formalin-induced nociception pain Swiss […] mouse model assessed as decrease in perception of II phase of noxious stimulus at 10 mg/kg, ip by formalin test; type: functional, organism-based
Rattus norvegicus [10] = assay: Anxiolytic activity at Sprague-Dawley rat assessed as decrease in time spent in closed arm at 5 to 20 mg/kg, po by EPM test; type: functional, organism-based

COc1ccccc1OCCNCC1COC(c2ccccc2)(c2ccccc2)OC1.O=C(O)C(=O)O showed an Activity (SH-SY5Y [1]) of 79%, an Activity (SH-SY5Y [2]) of 69% and a Papp A→B at 2 h [3] of 26 ×10⁻⁶ cm/s. For the same compound, the half-life [4] was 103 min, the Cmax [5] was 157.9 nmol/g and the AUCt [6] was 7167.6 nmol·min/g. It also gave a half-life [7] of 6.2 min, a half-life [8] of 142 min and an Activity (Rattus norvegicus [9]) of 18%. For the same compound, the inhibition (Mus musculus) was “Active” and the inhibition (Rattus norvegicus [10]) was “Active”.
